According to publication PMC12888861, “Antibacterial activity of enmetazobactam against Acinetobacter spp.: a molecular dissection of mechanism of action and resistance determinants” (Antimicrobial Agents and Chemotherapy, 2025):
Read-outs that look alike come from different tables or passages of the source.

System: A. non-baumannii isolates (n = 87)
Assay: MIC, broth microdilution (EUCAST), A. non-baumannii isolates
Format: cell-based, Acinetobacter spp. (non-baumannii)
Settings: for MIC: in combinations ETZ fixed at 8 mg/L, read-out: MIC
Text: The bacterial strains used in this study comprised 208 clinical isolates from the Spanish National Acinetobacter spp. 2020 Multicenter Collection, which was previously characterized in detail by our research group, including whole-genome sequencing, phylogenetics studies, clonal dynamics, and resistance mechanisms ([2], [29]). Additionally, a collection of A. baumannii ATCC 17978 transformants coding the blaOXA-23, blaOXA-24/40, blaOXA-51, blaOXA-58, blaOXA-143, and blaOXA-201 genes, previously constructed and described by our group ([30]), was used to determine the activity of enmetazobactam against strains carrying the main CHDLs of A. baumannii.
The antimicrobial susceptibility of the 208 Acinetobacter spp. isolates was assessed using the broth microdilution method, as described in the European Committee on Antimicrobial Susceptibility Testing (EUCAST) v.15 guidelines (http://www.eucast.org/clinical_breakpoints). […] MICs for enmetazobactam alone were assessed as well. […] Subsequently, MIC testing was also conducted with a collection of A. baumannii ATCC 17978 transformants expressing clinically relevant OXA-like carbapenemase genes.
The A. baumannii ATCC 19606 strain was used as the reference strain in all susceptibility experiments, in duplicate assays. Antibiotics were purchased from Sigma-Aldrich, except enmetazobactam and durlobactam, which were obtained from Advanz Pharma and MedChemExpress, respectively.

[1] = Acinetobacter, A. non-baumannii isolates (n=87), ETZ fixed 8 mg/L in combinations

C[C@@H](O)[C@H]1C(=O)N2C(C(=O)O)=C(SCCN=CN)C[C@H]12 [imipenem]
MIC (Acinetobacter pittii, isolate NO-Ab90, Acinetobacter pittii): ≤ 0.06 µg/mL | MIC (Acinetobacter pittii, isolate NO-Ab97, Acinetobacter pittii): ≤ 0.06 µg/mL | MIC (Acinetobacter pittii, isolate NO-Ab105, Acinetobacter pittii): 0.12 µg/mL | MIC (Acinetobacter pittii, isolate NO-Ab106, Acinetobacter pittii): ≤ 0.06 µg/mL | MIC (Acinetobacter pittii, isolate NO-Ab107, Acinetobacter pittii): ≤ 0.06 µg/mL | MIC (Acinetobacter pittii, isolate NO-Ab111, Acinetobacter pittii): 0.12 µg/mL | MIC (Acinetobacter pittii, isolate NO-Ab113, Acinetobacter pittii): 0.25 µg/mL | MIC (Acinetobacter pittii, isolate NO-Ab118, Acinetobacter pittii): 0.12 µg/mL | MIC (Acinetobacter pittii, isolate NO-Ab135, Acinetobacter pittii): 0.12 µg/mL | MIC (Acinetobacter pittii, isolate NO-Ab145, Acinetobacter pittii): 0.12 µg/mL | MIC (Acinetobacter pittii, isolate NO-Ab151, Acinetobacter pittii): 0.25 µg/mL | MIC (Acinetobacter pittii, isolate NO-Ab154, Acinetobacter pittii): 0.25 µg/mL | MIC (Acinetobacter pittii, isolate NO-Ab157, Acinetobacter pittii): 0.25 µg/mL | MIC (Acinetobacter pittii, isolate NO-Ab162, Acinetobacter pittii): 0.12 µg/mL | MIC (Acinetobacter pittii, isolate NO-Ab164, Acinetobacter pittii): ≤ 0.06 µg/mL | MIC (Acinetobacter pittii, isolate NO-Ab178, Acinetobacter pittii): 0.12 µg/mL | MIC (Acinetobacter pittii, isolate NO-Ab197, Acinetobacter pittii): 0.12 µg/mL | MIC (Acinetobacter proteolyticus, isolate NO-Ab99, Acinetobacter proteolyticus): 0.25 µg/mL | MIC (Acinetobacter proteolyticus, isolate NO-Ab102, Acinetobacter proteolyticus): 0.25 µg/mL | MIC (Acinetobacter proteolyticus, isolate NO-Ab210, Acinetobacter proteolyticus): ≤ 0.06 µg/mL | MIC (Acinetobacter radioresistens, isolate NO-Ab175, Acinetobacter radioresistens): 0.25 µg/mL | MIC (Acinetobacter radioresistens, isolate NO-Ab215, Acinetobacter radioresistens): 0.12 µg/mL | MIC (Acinetobacter ursingii, isolate NO-Ab3, Acinetobacter ursingii): ≤ 0.06 µg/mL | MIC (Acinetobacter ursingii, isolate NO-Ab64, Acinetobacter ursingii): ≤ 0.06 µg/mL | MIC (Acinetobacter ursingii, isolate NO-Ab87, Acinetobacter ursingii): ≤ 0.06 µg/mL | MIC (Acinetobacter ursingii, isolate NO-Ab103, Acinetobacter ursingii): ≤ 0.06 µg/mL | MIC (Acinetobacter ursingii, isolate NO-Ab119, Acinetobacter ursingii): 0.25 µg/mL | MIC (Acinetobacter ursingii, isolate NO-Ab120, Acinetobacter ursingii): ≤ 0.06 µg/mL | MIC (Acinetobacter ursingii, isolate NO-Ab123, Acinetobacter ursingii): ≤ 0.06 µg/mL | MIC (Acinetobacter ursingii, isolate NO-Ab126, Acinetobacter ursingii): 0.12 µg/mL | MIC (Acinetobacter ursingii, isolate NO-Ab147, Acinetobacter ursingii): 0.25 µg/mL | MIC (Acinetobacter ursingii, isolate NO-Ab155, Acinetobacter ursingii): 0.25 µg/mL | MIC (Acinetobacter ursingii, isolate NO-Ab165, Acinetobacter ursingii): 0.12 µg/mL | MIC (Acinetobacter ursingii, isolate NO-Ab166, Acinetobacter ursingii): ≤ 0.06 µg/mL | MIC (Acinetobacter ursingii, isolate NO-Ab214, Acinetobacter ursingii): ≤ 0.06 µg/mL | MIC (Acinetobacter ursingii, isolate NO-Ab221, Acinetobacter ursingii): ≤ 0.06 µg/mL | MIC (Acinetobacter ursingii, isolate NO-Ab222, Acinetobacter ursingii): ≤ 0.06 µg/mL | MIC (Acinetobacter, isolate NO-Ab146, Acinetobacter iwoffii): 0.25 µg/mL | MIC (Acinetobacter, isolate NO-Ab159, Acinetobacter iwoffii): ≤ 0.06 µg/mL | MIC50 [1]: 0.12 µg/mL | MIC90 [1]: 0.25 µg/mL | MIC distribution 0.25 (cumulative share of A. non-baumannii isolates (n=87) at MIC 0.25 mg/L, ETZ fixed 8 mg/L in combinations): 96.6 | MIC distribution 0.5 (cumulative share of A. non-baumannii isolates (n=87) at MIC 0.5 mg/L, ETZ fixed 8 mg/L in combinations): 97.7 | MIC distribution 1 (cumulative share of A. non-baumannii isolates (n=87) at MIC 1 mg/L, ETZ fixed 8 mg/L in combinations): 97.7 | MIC distribution 2 (cumulative share of A. non-baumannii isolates (n=87) at MIC 2 mg/L, ETZ fixed 8 mg/L in combinations): 97.7 | MIC distribution 4 (cumulative share of A. non-baumannii isolates (n=87) at MIC 4 mg/L, ETZ fixed 8 mg/L in combinations): 97.7 | MIC distribution 8 (cumulative share of A. non-baumannii isolates (n=87) at MIC 8 mg/L, ETZ fixed 8 mg/L in combinations): 97.7 | MIC distribution 16 (cumulative share of A. non-baumannii isolates (n=87) at MIC 16 mg/L, ETZ fixed 8 mg/L in combinations): 97.7 | MIC distribution 32 (cumulative share of A. non-baumannii isolates (n=87) at MIC 32 mg/L, ETZ fixed 8 mg/L in combinations): 100 | MIC distribution ≤0.06 (cumulative share of A. non-baumannii isolates (n=87) at MIC ≤0.06 mg/L, ETZ fixed 8 mg/L in combinations): 32.2
